Test results reported in ChEMBL document CHEMBL1201862, “PubChem BioAssay data set” (2004).
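Following 48 hours of exposure in 96-well plates, responses at five concentrations were used to interpolate endpoints linearly. GI50 = concentration required for 50% inhibition of growth.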 The source made the active and inactive calls. No stated cut-off is given here; in the data, active = GI50 up to about 1.1 µM and inactive = higher.

How the values were obtained:
Assay in all cases: DTP human tumour cell line panel, 48 h
DMS-114 = system: DMS-114
DMS-273 = system: DMS-273
KM-20L2 = system: KM-20L2
M19-MEL = system: M19-MEL
XF498 = system: XF498
LXFL 529 = system: LXFL 529
SNB-78 = system: SNB-78
DLD-1 = system: DLD-1
RXF 631 = system: RXF 631

With `Cc1ccc(NC(=O)CC2C(=O)Nc3ccccc3[S+]2[O-])cc1C` (stereo not drawn) the GI50 (DMS-114) was 48.1 µM (inactive), the GI50 (DMS-273) was 28.1 µM (inactive) and the GI50 (KM-20L2) was > 100 µM (inactive). The GI50 (M19-MEL) was > 100 µM (inactive), the GI50 (XF498) was > 100 µM (inactive) and the GI50 (LXFL 529) was 88.3 µM (inactive). For the same compound, the GI50 (SNB-78) was > 100 µM (inactive) and the GI50 (DLD-1) was > 100 µM (inactive).
With `COC(=O)C1Cc2c(n(C)c3ccccc23)C(c2ccccc2)N1` (stereo not drawn) the GI50 (RXF 631) was > 100 µM (inactive), the GI50 (DMS-114) was 21.8 µM (inactive) and the GI50 (DMS-273) was 38.8 µM (inactive). For the same compound, the GI50 (KM-20L2) was 57.8 µM (inactive), the GI50 (M19-MEL) was 45.6 µM (inactive) and the GI50 (LXFL 529) was 33.7 µM (inactive). The GI50 (SNB-78) was > 100 µM (inactive) and the GI50 (DLD-1) was > 10 µM (inactive).
`Cc1cn2c(=O)c3ncn(C4OC(CO)C(O)C4O)c3n(C)c2n1` (stereo not drawn) was tested, and the GI50 (RXF 631) was > 100 µM (inactive), the GI50 (DMS-114) was > 100 µM (inactive) and the GI50 (DMS-273) was > 100 µM (inactive). The GI50 (KM-20L2) was > 100 µM (inactive), the GI50 (M19-MEL) was > 100 µM (inactive) and the GI50 (LXFL 529) was > 100 µM (inactive). For the same compound, the GI50 (SNB-78) was > 100 µM (inactive) and the GI50 (DLD-1) was > 100 µM (inactive).
With `CCCNc1ncnc2c1cnn2C` the GI50 (DMS-114) was > 100 µM (inactive), the GI50 (DMS-273) was > 100 µM (inactive) and the GI50 (KM-20L2) was > 100 µM (inactive). For the same compound, the GI50 (M19-MEL) was > 100 µM (inactive), the GI50 (XF498) was > 100 µM (inactive) and the GI50 (SNB-78) was > 100 µM (inactive).
In the case of `O=C1c2ccccc2C(=O)c2sc(Nc3cccc(Cl)c3)nc21`, the GI50 (DMS-114) was 1.36 µM (inactive), the GI50 (DMS-273) was 1.87 µM (inactive) and the GI50 (KM-20L2) was 7.45 µM (inactive). For the same compound, the GI50 (M19-MEL) was 0.322 µM (active), the GI50 (XF498) was 1.73 µM (inactive) and the GI50 (LXFL 529) was 1.48 µM (inactive). The GI50 (DLD-1) was 1.94 µM (inactive).
For `Cn1cnnc1Sc1c([N+](=O)[O-])nc(-c2ccc([N+](=O)[O-])cc2)n1C`, the GI50 (RXF 631) was 17.7 µM (inactive), the GI50 (DMS-114) was 17.9 µM (inactive) and the GI50 (DMS-273) was 17.4 µM (inactive). The GI50 (M19-MEL) was 17.8 µM (inactive), the GI50 (XF498) was 10.4 µM (inactive) and the GI50 (LXFL 529) was 13.8 µM (inactive). For the same compound, the GI50 (SNB-78) was 18.3 µM (inactive) and the GI50 (DLD-1) was 15.3 µM (inactive).
With `O=c1c2ccccc2c(=O)c2c1cc(Cl)c1[nH]c3c([nH]c12)c(Cl)cc1c(=O)c2ccccc2c(=O)c13` the GI50 (DMS-114) was > 100 µM (inactive), the GI50 (DMS-273) was > 100 µM (inactive) and the GI50 (KM-20L2) was > 100 µM (inactive). For the same compound, the GI50 (M19-MEL) was > 100 µM (inactive), the GI50 (SNB-78) was > 100 µM (inactive) and the GI50 (DLD-1) was > 100 µM (inactive).
With `CCOc1ccc(/N=C\c2ccc3cc(C)ccc3n2)cc1` the GI50 (RXF 631) was > 100 µM (inactive), the GI50 (DMS-114) was 31.1 µM (inactive) and the GI50 (DMS-273) was 43.2 µM (inactive). The GI50 (KM-20L2) was 34.7 µM (inactive), the GI50 (M19-MEL) was 52.4 µM (inactive) and the GI50 (XF498) was > 100 µM (inactive). For the same compound, the GI50 (LXFL 529) was 30.5 µM (inactive), the GI50 (SNB-78) was > 100 µM (inactive) and the GI50 (DLD-1) was 48.8 µM (inactive).
`O/N=C1/C(=C/c2ccc3c(c2)OCO3)CCCC1C(NO)c1ccc2c(c1)OCO2` (stereo not drawn) was tested, and the GI50 (DMS-114) was 22.6 µM (inactive), the GI50 (DMS-273) was 21.8 µM (inactive) and the GI50 (KM-20L2) was 18.2 µM (inactive). For the same compound, the GI50 (M19-MEL) was 24.8 µM (inactive), the GI50 (XF498) was 22.7 µM (inactive) and the GI50 (LXFL 529) was 20 µM (inactive). The GI50 (SNB-78) was 31.3 µM (inactive) and the GI50 (DLD-1) was 28.4 µM (inactive).
In the case of `CCN(CC)CCNc1ccc2ncn3c4ccc(O)cc4c(=O)c1c23`, the GI50 (DMS-273) was 0.0731 µM (active), the GI50 (KM-20L2) was 1.23 µM (inactive) and the GI50 (M19-MEL) was 1.38 µM (inactive). The GI50 (XF498) was 0.173 µM (active), the GI50 (LXFL 529) was 1.26 µM (inactive) and the GI50 (SNB-78) was 0.541 µM (active). For the same compound, the GI50 (DLD-1) was 0.544 µM (active).
With `CC(=O)C(CN(C)Cc1ccccc1)C(c1ccccc1)c1c(O)c2ccccc2oc1=O` (stereo not drawn) the GI50 (DMS-114) was > 100 µM (inactive), the GI50 (DMS-273) was > 100 µM (inactive) and the GI50 (KM-20L2) was 55.8 µM (inactive). The GI50 (M19-MEL) was > 100 µM (inactive), the GI50 (LXFL 529) was > 100 µM (inactive) and the GI50 (SNB-78) was > 100 µM (inactive). For the same compound, the GI50 (DLD-1) was > 100 µM (inactive).
In the case of `CCN(CC)[C@@H]1c2cc3c(cc2C(c2cc(OC)c(O)c(OC)c2)C2C(=O)CO[C@@H]21)OCO3` (stereo partly drawn), the GI50 (RXF 631) was > 100 µM (inactive), the GI50 (DMS-114) was > 100 µM (inactive) and the GI50 (DMS-273) was > 100 µM (inactive). The GI50 (KM-20L2) was > 100 µM (inactive), the GI50 (M19-MEL) was > 100 µM (inactive) and the GI50 (XF498) was > 100 µM (inactive). For the same compound, the GI50 (LXFL 529) was > 100 µM (inactive) and the GI50 (DLD-1) was > 100 µM (inactive).
In the case of `CC(=O)OC1CC2C(C)(C)OC(=O)CC(OC(C)=O)[C@]2(C)C2CCC3(C)C(=CCC3[C@H]3COC(=O)C3)[C@]12C` (stereo partly drawn), the GI50 (DMS-114) was 70.1 µM (inactive), the GI50 (DMS-273) was 88.9 µM (inactive) and the GI50 (KM-20L2) was > 100 µM (inactive). For the same compound, the GI50 (M19-MEL) was 80.2 µM (inactive), the GI50 (XF498) was > 100 µM (inactive) and the GI50 (LXFL 529) was 51.8 µM (inactive). The GI50 (SNB-78) was > 100 µM (inactive) and the GI50 (DLD-1) was 71.6 µM (inactive).
`CC1C[C@H](C)CC(C(O)CC2CC(=O)N(Cc3ccccc3)C(=O)C2)C1O` (stereo partly drawn) was tested, and the GI50 (DMS-114) was > 100 µM (inactive), the GI50 (DMS-273) was > 100 µM (inactive) and the GI50 (KM-20L2) was > 100 µM (inactive). For the same compound, the GI50 (M19-MEL) was > 100 µM (inactive), the GI50 (LXFL 529) was > 100 µM (inactive) and the GI50 (SNB-78) was > 100 µM (inactive). The GI50 (DLD-1) was > 100 µM (inactive).
With `O=C(O)CN(c1ccccc1)S(=O)(=O)c1cccc([N+](=O)[O-])c1` the GI50 (DMS-273) was > 100 µM (inactive), the GI50 (KM-20L2) was > 100 µM (inactive) and the GI50 (M19-MEL) was > 100 µM (inactive). For the same compound, the GI50 (XF498) was > 100 µM (inactive), the GI50 (LXFL 529) was > 100 µM (inactive) and the GI50 (DLD-1) was > 100 µM (inactive).
In the case of `C=C1CC[C@@H]2C(C)(C)CCC[C@@]2(C)[C@@H]1Cc1cc(O)ccc1O`, the GI50 (DMS-114) was 1.89 µM (inactive), the GI50 (DMS-273) was 5.92 µM (inactive) and the GI50 (KM-20L2) was 17.3 µM (inactive). The GI50 (M19-MEL) was 3.56 µM (inactive), the GI50 (LXFL 529) was 2.11 µM (inactive) and the GI50 (SNB-78) was 1.93 µM (inactive). The GI50 (DLD-1) was 5.21 µM (inactive).
